From ChEMBL document CHEMBL1152142, “Validation of high-affinity binding sites for succinic acid through distinguishable binding of gamma-hydroxybutyric acid receptor-specific NCS 382 antipodes” (Bioorg Med Chem Lett, 2008) come the findings set out here.

Assay [1] deals with T1, Gamma-hydroxybutyrate receptor (Rattus norvegicus, UniProt Q6RY99).
T1 sequence (Q6RY99 whole entry): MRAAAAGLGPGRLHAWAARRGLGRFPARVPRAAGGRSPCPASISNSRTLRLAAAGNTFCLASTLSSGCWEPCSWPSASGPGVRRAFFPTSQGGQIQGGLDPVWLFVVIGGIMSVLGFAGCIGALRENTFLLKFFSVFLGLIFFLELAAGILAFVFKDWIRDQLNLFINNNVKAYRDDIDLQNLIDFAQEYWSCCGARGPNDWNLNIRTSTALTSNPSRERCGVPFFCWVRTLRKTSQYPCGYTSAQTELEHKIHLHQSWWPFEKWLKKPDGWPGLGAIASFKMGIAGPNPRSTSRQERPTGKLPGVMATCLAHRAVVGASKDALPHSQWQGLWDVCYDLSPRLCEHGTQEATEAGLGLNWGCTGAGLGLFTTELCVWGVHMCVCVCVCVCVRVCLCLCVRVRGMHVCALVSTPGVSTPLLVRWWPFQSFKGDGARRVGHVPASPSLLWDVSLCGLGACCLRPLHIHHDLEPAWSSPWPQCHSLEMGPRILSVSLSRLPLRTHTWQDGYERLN
Description: Displacement of [3H]SUC from succinic acid binding site of gamma-hydroxybutyrate receptor in rat forebrain synaptic membranes. In general terms: Loss of bound radioactivity is the signal in a displacement assay; it reports binding, not function.

The target in assay [2] is Calcium/calmodulin-dependent protein kinase type II subunit alpha (Rattus norvegicus, UniProt P11275). Description: Displacement of [3H]GHB from gamma-hydroxybutyrate binding site of gamma-hydroxybutyrate receptor in rat forebrain synaptic membranes. It counts as cell membranes, Membrane.
The target of assay [3] is T2, Gamma-hydroxybutyrate receptor (Rattus norvegicus) (UniProt Q6RY99).
T2 sequence (whole entry): T1 sequence (Q6RY99 whole entry)
Nature of the assay: Binding affinity to succinic acid binding site of gamma-hydroxybutyrate receptor in rat forebrain synaptic membranes at 100 uM. The class given is cell membranes. The following applies: Membrane.

Assay [4] deals with T2, Gamma-hydroxybutyrate receptor (Rattus norvegicus). Description: Binding affinity to gamma-hydroxybutyrate binding site of gamma-hydroxybutyrate receptor in rat forebrain synaptic membranes at 100 uM. The class given is cell membranes. The following applies: Membrane.

Active and inactive are the calls of the source. No cut-off for these calls is given here.

One may read the IC50 as the concentration that gives 50% inhibition.

Sequence of Calcium/calmodulin-dependent protein kinase type II subunit alpha (P11275 whole entry): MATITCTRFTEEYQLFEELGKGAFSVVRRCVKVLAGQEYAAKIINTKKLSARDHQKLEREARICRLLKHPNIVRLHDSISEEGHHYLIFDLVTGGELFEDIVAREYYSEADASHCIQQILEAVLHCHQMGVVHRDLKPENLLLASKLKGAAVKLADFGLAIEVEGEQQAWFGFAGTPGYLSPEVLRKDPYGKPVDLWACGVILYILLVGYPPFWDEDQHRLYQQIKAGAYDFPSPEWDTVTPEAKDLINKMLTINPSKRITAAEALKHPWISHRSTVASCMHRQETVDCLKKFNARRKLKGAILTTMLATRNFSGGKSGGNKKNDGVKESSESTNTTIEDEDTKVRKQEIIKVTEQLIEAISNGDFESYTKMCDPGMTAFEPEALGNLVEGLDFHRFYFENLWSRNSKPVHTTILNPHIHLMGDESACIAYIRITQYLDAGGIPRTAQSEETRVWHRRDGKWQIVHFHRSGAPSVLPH

Regarding `O=C(O)/C=C1\CCCc2ccccc2C1O` (racemic), the half-maximal inhibitory concentration (IC50) in assay [1] turned out to be 500 nM; in assay [2], 900 nM.

Consider `O=C(O)[C@H]1C[C@H](O)CCN1`, for which the outcome in assay [3] and in assay [4] was inactive.

Consider `O=C(O)[C@@H]1C[C@H](O)CCN1`, for which the result in assay [3] and in assay [4] was inactive.

`COC(=O)[C@@H]1C[C@H](O)CCN1`: the outcome in assay [3] and in assay [4] was inactive.

Consider `COC(=O)[C@H]1C[C@H](O)CCN1`, for which the result in assay [3] and in assay [4] was inactive.

For the compound `O=C(O)/C=C1\CCCc2ccccc2[C@H]1O`, the half-maximal inhibitory concentration (IC50) in assay [1] came out at 74000 nM; in assay [2] it was 93000 nM.

In the case of `O=C(O)/C=C1\CCCc2ccccc2[C@@H]1O`, the half-maximal inhibitory concentration (IC50) turned out to be 400 nM in assay [1] and 800 nM in assay [2].

Regarding `O=C(O)[C@H]1C[C@@H](O)CCN1`, the Activity in assay [3] turned out to be 26%; in assay [4], 30%.
